Experimental data published in patent publication US10703746B2, “Mutant IDH1 inhibitors useful for treating cancer” (THE UNITED STATES OF AMERICA, AS REPRESENTED BY THE …, priority 2014, dated 2020).

Columns and labels:
IDH1 R132H = IDH1 R132H (Homo sapiens, UniProt O75874, R132H); assay: IDH1 R132H enzymatic assay (NADPH depletion coupled to diaphorase/resazurin); type: biochemical; conditions: IDH1 R132H enzymatic inhibition, IC50 class
IDH1 R132C = IDH1 R132C (Homo sapiens, UniProt O75874, R132C); assay: IDH1 R132C enzymatic assay (NADPH depletion coupled to diaphorase/resazurin); type: biochemical; conditions: IDH1 R132C enzymatic inhibition, IC50 class
Outline: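 NADPH depletion, read via diaphorase/resazurin coupling, after adding substrate at 0.6 mM α-KG and 0.012 mM NADPH. Beforehand, 0.00032 mg/mL enzyme sat with compound 30 min at room temperature in pH 6.5 potassium phosphate buffer with MgCl2, glycerol and BSA.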

IDH1 R132C, sequence (O75874 whole entry R132C): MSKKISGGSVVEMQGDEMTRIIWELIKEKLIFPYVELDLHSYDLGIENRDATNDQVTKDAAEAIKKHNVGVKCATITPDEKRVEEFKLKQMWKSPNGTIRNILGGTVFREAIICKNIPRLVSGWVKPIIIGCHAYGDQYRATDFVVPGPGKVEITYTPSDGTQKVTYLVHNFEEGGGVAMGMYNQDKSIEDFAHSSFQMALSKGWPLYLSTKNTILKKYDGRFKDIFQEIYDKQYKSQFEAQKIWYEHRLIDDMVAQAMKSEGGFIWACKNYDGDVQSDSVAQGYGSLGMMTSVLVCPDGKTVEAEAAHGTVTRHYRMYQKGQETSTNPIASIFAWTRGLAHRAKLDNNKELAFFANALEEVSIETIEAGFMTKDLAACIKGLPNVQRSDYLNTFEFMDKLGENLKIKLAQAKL
IDH1 R132H, sequence (O75874 whole entry R132H): as the sequence (O75874 whole entry R132C) above, with C132H counted along it

SMILES | IC50 (IDH1 R132H) | IC50 (IDH1 R132C)
CCc1cccc(CC)c1-n1c(-c2ccn(-c3ccccc3)n2)c(C(=O)N2CCNCC2)cc(-c2nc(-c3ccc(Cl)cc3)cs2)c1=O [Compound 317] | 5000 to 20000 nM | 1000 to 5000 nM
COc1ccc(F)cc1-n1c2c(cc(-c3nc(-c4ccc(Cl)cc4)cs3)c1=O)C(=O)CCC2 [Compound 318] | 1000 to 5000 nM | 1000 to 5000 nM
COc1cccc(CN2CCN(C)CC2)c1-n1c2c(cc(-c3nc(-c4ccc(Cl)cc4)cs3)c1=O)C(=O)CC(C)(C)C2 [Compound 319] | 5000 to 20000 nM | 5000 to 20000 nM
CCc1cccc(CC)c1-n1c(C=C(C)C)c(C(=O)N2CCC3(CCNC3)C2)cc(-c2nc(-c3ccc(Cl)cc3)cs2)c1=O (centres unmarked) [Compound 320] | 300 to 1000 nM | < 300 nM
CCc1cccc(CC)c1-n1c(CC(C)C)c(C(=O)N2CCNCC2)cc(-c2nc(-c3ccc(OC)nc3)c(C)s2)c1=O [Compound 322] | 300 to 1000 nM | 300 to 1000 nM
CCc1cccc(CC)c1-n1c(C=C(C)C)c(C(=O)N2C[C@H]3CC[C@@H](C2)N3)cc(-c2nc(-c3ccc(C(F)(F)F)cc3)cs2)c1=O [Compound 323] | < 300 nM | < 300 nM
CCc1cccc(CC)c1-n1c(C=C(C)C)c(C(=O)N2CCNC3(CC3)C2)cc(-c2nc(-c3ccc(C(F)(F)F)cc3)cs2)c1=O [Compound 324] | < 300 nM | < 300 nM
CCOc1ncc(C)cc1-n1c(C=C(C)C)c(C(=O)N2CCNCC2)cc(-c2nc(-c3ccc(C(F)F)nc3)cs2)c1=O [Compound 326] | < 300 nM | 300 to 1000 nM
CCc1ncc(F)cc1-n1c(C=C(C)C)c(C(=O)N2CCNCC2)cc(-c2nc(-c3ccc(C(F)(F)F)cc3)cs2)c1=O [Compound 328] | < 300 nM | < 300 nM
CCOc1ccc(F)cc1-n1c(C=C(C)C)c(C(=O)N2CCNCC2)cc(-c2nc(-c3ccc(C(F)(F)F)cc3)cs2)c1=O [Compound 329] | < 300 nM | < 300 nM
CCc1ncc(C)cc1-n1c(C=C(C)C)c(C(=O)N2CCNCC2)cc(-c2nc(-c3ccc(Cl)cc3)cs2)c1=O [Compound 330] | < 300 nM | 300 to 1000 nM
CCOc1ncccc1-n1c(C=C(C)C)c(C(=O)N2CCNCC2)cc(-c2nc(-c3ccc(Cl)cc3)cs2)c1=O [Compound 331] | < 300 nM | 300 to 1000 nM
CCc1cccc(CC)c1-n1c(C=C(C)C)c(C(=O)N2CCNCC2C(C)C)cc(-c2nc(-c3ccc(Cl)cc3)cs2)c1=O (centres unmarked) [Compound 332] | 300 to 1000 nM | < 300 nM
CCc1ccc(N(C)C)cc1-n1c(C=C(C)C)c(C(=O)N2CCNCC2)cc(-c2nc(-c3ccc(Cl)cc3)cs2)c1=O [Compound 333] | < 300 nM | < 300 nM
CCc1ncc(OC)cc1-n1c(C=C(C)C)c(C(=O)N2CCNCC2)cc(-c2nc(-c3ccc(C(F)(F)F)nc3)cs2)c1=O [Compound 334] | 300 to 1000 nM | 1000 to 5000 nM
CCc1cccc(CC)c1-n1c(C=C(C)C)c(C(=O)N2CCNCC2)cc(-c2nc(-c3ccc(C(F)F)cc3)cs2)c1=O [Compound 336] | < 300 nM | < 300 nM
CCc1cccc(CC)c1-n1c(C=C(C)C)c(C(=O)N2CCNC(=O)C2CC(=O)O)cc(-c2nc(-c3ccc(Cl)cc3)cs2)c1=O (centres unmarked) [Compound 337] | < 300 nM | < 300 nM
CCc1cccc(CC)c1-n1c2c(cc(-c3nc(-c4ccc(Cl)cc4)cs3)c1=O)C(=O)N(C)C2C(C)C (centres unmarked) [Compound 338] | 1000 to 5000 nM | 300 to 1000 nM
O=C1CCCc2c1cc(-c1nc(-c3ccc(Cl)cc3)cs1)c(=O)n2-c1ccccc1CN1CCOCC1 [Compound 339] | 5000 to 20000 nM | 1000 to 5000 nM
CCc1cccc(CC)c1-n1c(CC(C)C)c(C(=O)N2CCNCC2)cc(-c2nc(-c3ccc(Cl)cc3)co2)c1=O [Compound 340] | 300 to 1000 nM | 300 to 1000 nM
CC(C)=Cc1c(C(=O)N2CCNCC2)cc(-c2nc(-c3ccc(Cl)cc3)cs2)c(=O)n1-c1ccccc1 [Compound 341] | 300 to 1000 nM | 1000 to 5000 nM
Cc1cc(CO)ccc1-n1c2c(cc(-c3nc(-c4ccc(Cl)cc4)cs3)c1=O)C(=O)CCC2 [Compound 342] | 5000 to 20000 nM | 5000 to 20000 nM
O=C1CCCc2c1cc(-c1nc(-c3ccc(Cl)cc3)cs1)c(=O)n2-c1ccccc1OCC(F)(F)F [Compound 343] | 1000 to 5000 nM | 1000 to 5000 nM

SMILES | IC50 (IDH1 R132H) | IC50 (IDH1 R132C)
CCc1cccc(CC)c1-n1c(C=C(C)C)c(C(=O)N2CC3(CCNC3)C2)cc(-c2nc(-c3ccc(Cl)cc3)cs2)c1=O [Compound 344] | 300 to 1000 nM | < 300 nM
CCc1cccc(CC)c1-n1c(C=C(C)C)c(C(=O)N2CCNCC2)cc(-c2nn(-c3ccc(Cl)cc3)cc2Cl)c1=O [Compound 345] | 1000 to 5000 nM | 1000 to 5000 nM
Cc1cc(C#N)c(-n2c3c(cc(-c4nc(-c5ccc(Cl)cc5)cs4)c2=O)C(=O)CC(C)(C)C3)s1 [Compound 346] | 300 to 1000 nM | 300 to 1000 nM
CCOC(=O)c1c(O)c(-c2nc(-c3ccc(Cl)cc3)cs2)c(=O)n(-c2c(CC)cccc2CC)c1C [Compound 347, ethyl 5-(4-(4-chlorophenyl)thiazol-2-yl)-1-(2,6-diethylphenyl)-4-hydroxy-2-methyl-6-oxo-1,6-dihydropyridine-3-carboxylate] | 5000 to 20000 nM | 5000 to 20000 nM
CCOc1ccc(OCC)c(-n2c(C=C(C)C)c(C(=O)N3CCNCC3)cc(-c3nc(-c4ccc(Cl)cc4)cs3)c2=O)c1 [Compound 348] | < 300 nM | < 300 nM
CCc1cccc(CC)c1-n1c(C=C(C)C)c(C(=O)N2CCNCC2)cc(-c2ccn(-c3ccc(Cl)cc3)n2)c1=O [Compound 349] | < 300 nM | < 300 nM
O=C1CCCc2c1cc(-c1nc(-c3ccc(Cl)cc3)cs1)c(=O)n2-c1ccccn1 [Compound 350] | > 20000 nM | > 20000 nM
COc1ncc(C2=CCNCC2)cc1-n1c2c(cc(-c3nc(-c4ccc(Cl)cc4)cs3)c1=O)C(=O)CC(C)(C)C2 [Compound 351] | 5000 to 20000 nM | 5000 to 20000 nM
CCc1ccc(F)cc1-n1c(C=C(C)C)c(C(=O)N2CCNCC2)cc(-c2nc(-c3ccc(Cl)cc3)cs2)c1=O [Compound 352] | < 300 nM | < 300 nM
CCOc1ccc(Cl)c(-n2c(C=C(C)C)c(C(=O)N3CCNCC3)cc(-c3nc(-c4ccc(Cl)cc4)cs3)c2=O)c1 [Compound 354] | < 300 nM | < 300 nM
CCc1cccc(CC)c1N1C(=O)C(c2nc(-c3ccc(Cl)cc3)cs2)CC(C(=O)N2CCNCC2)=C1CC(C)C (centres unmarked) [Compound 356] | 300 to 1000 nM | < 300 nM
CC(C)=Cc1c(C(=O)N2CCNCC2)cc(-c2nc(-c3ccc(Cl)cc3)cs2)c(=O)n1-c1cc(C)ccc1Cl [Compound 357] | < 300 nM | < 300 nM
CCc1cccc(CC)c1-n1c(C=C(C)C)c(C(=O)N2CCNC(=O)C2)cc(-c2nc(-c3ccc(Cl)cc3)cs2)c1=O [Compound 358] | < 300 nM | < 300 nM
CC(C)=Cc1c(C(=O)N2CCNCC2)cc(-c2nc(-c3ccc(Cl)cc3)cs2)c(=O)n1-c1cc(Cl)ccc1Cl [Compound 359] | < 300 nM | < 300 nM
CN1CCN(Cc2ccc(-n3c4c(cc(-c5nc(-c6ccc(Cl)cc6)cs5)c3=O)C(=O)CCC4)cc2)CC1 [Compound 360] | > 20000 nM | > 20000 nM
COc1ncc(F)cc1-n1c(C=C(C)C)c(C(=O)N2CCNCC2)cc(-c2nc(-c3ccc(Cl)cc3)cs2)c1=O [Compound 361] | < 300 nM | < 300 nM
CCc1cccc(CC)c1-n1c(C=C(C)C)c(C(=O)N2CCNCC2)cc(-c2nn(-c3ccc(Cl)cc3)cc2Br)c1=O [Compound 363] | 1000 to 5000 nM | 5000 to 20000 nM
COc1ccc(Cl)c(-n2c(CC(C)C)c(C(=O)N3CCNCC3)cc(-c3nc(-c4ccc(Cl)cc4)cs3)c2=O)c1 [Compound 364] | < 300 nM | 300 to 1000 nM
CCc1cccc(CC)c1-n1c(CC2CCNCC2)c(C(=O)NC)cc(-c2nc(-c3ccc(Cl)cc3)cs2)c1=O [Compound 365] | 5000 to 20000 nM | 5000 to 20000 nM
CCc1cccc(CC)c1-n1c(C=C(C)C)c(C(=O)N2CCNCC2(C)C)cc(-c2nc(-c3ccc(Cl)cc3)cs2)c1=O [Compound 366] | < 300 nM | < 300 nM
CC(C)=Cc1c(C(=O)N2CCNCC2)cc(-c2nc(-c3ccc(Cl)cc3)cs2)c(=O)n1-c1c(Cl)cccc1OC(C)C [Compound 367] | < 300 nM | < 300 nM
O=C1CCCc2c1cc(-c1nc(-c3ccc(Cl)cc3)cs1)c(=O)n2-c1ccncc1 [Compound 368] | > 20000 nM | > 20000 nM
CC1(C)CC(=O)c2cc(-c3nc(-c4ccc(Cl)cc4)cs3)c(=O)n(-c3sccc3C(N)=O)c2C1 [Compound 369] | 5000 to 20000 nM | 5000 to 20000 nM
